Data on 11 compounds can be found in patent publication US4269848A, “5-Substituted indan-2-carboxylic acid and functional derivatives” (Lipha, Lyonnaise Industrielle Pharmaceutique, priority 1976, dated 1981).

For series [1], the system named is erythema produced by ultra violet radiation. As to the kind of experiment: Protective effect against erythema from ultra violet radiation (Winder et al.). The format is in vivo, albino guinea pigs. Particulars: Cavia porcellus; albino guinea pig, oral; amount reducing erythema by 50%; read-out: AD50, U.V. The method, then: D--The protective effect against inflammation resulting from exposure to radiation was determined in albino guinea pigs using the method of Winder et al (Arch. Inv. Pharmacodyn. 1958, Vol. 116, page 261). The AD50 value was determined for the test substance, namely the amount which, when administered to the animal orally, reduced by 50% the erythema produced by exposing the shaved dorsal skin of the guinea pig to ultra violet radiation.

Series [2] is described as follows: Acute toxicity, LD 50 (oral route), mice. Particulars: mouse, in vivo. The source says:
A--The substances are of low toxicity. For example, the LD 50 value (oral route), determined in mice, of various compounds in accordance with the present invention are shown in column A of Table I.

Series [3] concerns carrageenin-induced edema. As to the kind of experiment: Anti-inflammatory activity, carrageenin-induced edema test (Winter et al.). The format is in vivo. The following applies: rat, oral; dose inhibiting edema by 30%; read-out: AD30, Carrageenin. An excerpt:
The protection afforded, by oral administration of the compound to a rat against edema induced by injecting a suspension of carrageenin under the arch of the foot of the animal was investigated. The AD30 dose is that which inhibits the edema by 30%.

Another series concerns platelets. As to the kind of experiment: In vitro inhibition of platelet aggregation induced by collagen (Born). The format is cell-based. Particulars: read-out: minimal active concentration, Platelet Aggregation Induced By Collagen. The method, then: E--The anti-inflammatory activity was also determined by the aggregation-inhibiting effect of the compounds in accordance with the present invention, in vitro, on platelets the aggregation of which was induced by collagen, in accordance with the method of Born (Journal of Physiology, 1962, Vol. 162, page 67). It is known that compounds which inhibit the activity or quantity of prostaglandin synthetase will inhibit the formation of prostaglandin PGE2 and the inflammatory and pyretic effect thereof. Since prostaglandin PGE2 also causes an increase in platelet aggregation, this test is an effective indication of anti-inflammatory and anti-pyretic activity due to inhibition of prostaglandin synthetase.

The test system of series [4] is spasms of pain caused by the intraperitoneal injection of a solution of acetic acid. In words: Analgesic activity, acetic acid induced spasms of pain (Koster et al.). The format is in vivo. The following applies: mouse, oral; dose reducing spasms of pain by 50%; read-out: AD50, Acetic Acid. The method, then: B--Analgesic activity in the mouse was determined by the method of Koster et al. (Fed. Proc. 1959, Vol. 18, page 412). The active dose 50 (AD50) value for various compounds in accordance with the present invention was determined, namely, that dose which, when administered orally, reduces by 50% the spasms of pain caused by the intraperitoneal injection of a solution of acetic acid.

Structures can show the parent of a compound that is named as a salt. Where only a bound is given, the exact number is not on record here.

For the compound `CCN(CC)CCOC(=O)C1Cc2ccc(C(=O)c3ccco3)cc2C1` (stereo not shown) [2'-(N,N-diethylaminoethyl) 5-(2'-furoyl)-indan-2-carboxylate], the ED50 in series [1] is 20 mg/kg; in series [4] it was 8 mg/kg. The LD50 in series [2] was found to be 1200 mg/kg. Besides, the ED30 in series [3] came out at 18 mg/kg. Besides, in the series on platelets, the minimal effective concentration amounted to 1 µg/mL.

With `CCN(CC)CCOC(=O)C1Cc2ccc(C(=O)c3cccs3)cc2C1` (stereo not shown) [2'-(N,N-diethylaminoethyl) 5-(2'-thenoyl)-indan-2-carboxylate, hydrochloride], the ED50 worked out at 10 mg/kg in series [1] and 4 mg/kg in series [4]. This compound also returned an LD50 in series [2] of 2160 mg/kg. Besides, in series [3], the ED30 is 8 mg/kg. The minimal effective concentration in the series with platelets is 0.25 µg/mL.

As to `O=C(c1ccc2c(c1)CC(C(=O)O)C2)c1ccco1` (stereo not shown) [5-(2'-furoyl)-indan-2-carboxylic acid, 5-(2'-Furoyl)-indan-2-carboxylic acid], the ED50 in series [1] came out at 14 mg/kg; in series [4] it was 11 mg/kg. In addition, the LD50 in series [2] was 1000 mg/kg. Moreover, the ED30 in series [3] stood at 23 mg/kg. In addition, in the series with platelets, the minimal effective concentration is 1 µg/mL.

Turning to `O=C(c1ccc2c(c1)CC(C(=O)O)C2)c1cccs1` (stereo not shown) [5-(2'-thenoyl)-indan-2-carboxylic acid], the ED50 in series [1] was 21 mg/kg; in series [4] it was 6.5 mg/kg. The compound further showed a median lethal dose (LD50) in series [2] of 1200 mg/kg. For the same compound, the ED30 in series [3] was 10 mg/kg. In the series on platelets, the minimal effective concentration was 2.5 µg/mL.

For `Cc1ccsc1C(=O)c1ccc2c(c1)CC(C(=O)O)C2` (stereo not shown) [5-(3'-Methyl-2'-thenoyl)-indan-2-carboxylic acid], the values for the ED50 in series [1] and in series [4] were 25 mg/kg and 37 mg/kg, respectively. The compound further showed an LD50 in series [2] of 1200 mg/kg. Also, the ED30 in series [3] was 26 mg/kg. For the same compound, the minimal effective concentration in the series with platelets turned out to be 10 µg/mL.

As to `O=C(c1ccoc1)c1ccc2c(c1)CC(C(=O)O)C2` (stereo not shown) [5-(3'-furoyl)-indan-2-carboxylic acid, 5-(3'-Furoyl)-indan-2-carboxylic acid], the ED50 in series [1] is 18 mg/kg; in series [4], 16 mg/kg. In series [2], this compound had an LD50 of 2400 mg/kg. In series [3], the ED30 was 20 mg/kg. Also, in the series with platelets, the minimal effective concentration was found to be 5 µg/mL.

Take `O=C(c1ccc2c(c1)CC(C(=O)O)C2)c1cc(Cl)c(Cl)s1` (stereo not shown) [5-(4',5'-dichloro-2'-thenoyl)-indan-2-carboxylic acid]: the ED50 was determined as 90 mg/kg in series [1] and 30 mg/kg in series [4]. The compound also had an LD50 in series [2] of 180 mg/kg. Further, the ED30 in series [3] was 42 mg/kg. Also, in the series on platelets, the minimal effective concentration is 7.5 µg/mL.

`COc1ccc(C(=O)c2ccc3c(c2)CC(C(=O)O)C3)cc1` (stereo not shown) [5-(4'-Methoxybenzoyl)-indan-2-carboxylic acid]: the figures for the ED50 in series [1] and in series [4] were 34 mg/kg and 6 mg/kg, respectively. This compound yielded an LD50 in series [2] of 650 mg/kg. For the same compound, the ED30 in series [3] worked out at 13 mg/kg. Further, in the series on platelets, the minimal effective concentration amounted to 2.5 µg/mL.

As to `CN(C)c1ccc(C(=O)c2ccc3c(c2)CC(C(=O)O)C3)cc1` (stereo not shown) [5-(4'-dimethylaminobenzoyl)-indan-2-carboxylic acid], the ED50 in series [1] amounted to 20 mg/kg; in series [4], 3 mg/kg. The LD50 in series [2] is 960 mg/kg. In series [3], the ED30 is 14 mg/kg. Also, the minimal effective concentration with platelets turned out to be 0.5 µg/mL.

On to `Cc1ccc(C(=O)c2ccc3c(c2)CC(C(=O)O)C3)o1` (stereo not shown) [5-(5'-Methyl-2'-furoyl)-indan-2-carboxylic acid], for which the ED50 was found to be 16 mg/kg in series [1] and 8 mg/kg in series [4]. The compound also came in with an LD50 in series [2] of 2400 mg/kg. For the same compound, the ED30 in series [3] came out at 10 mg/kg. For the same compound, the minimal effective concentration in the series on platelets is 1 µg/mL.

In the case of `CN(C)S(=O)(=O)c1ccc(C(=O)c2ccc3c(c2)CC(C(=O)O)C3)cc1` (stereo not shown) [5-(p-dimethylaminosulfonylbenzoyl)-indan-2-carboxylic acid], the ED50 in series [1] is > 300 mg/kg; in series [4], 80 mg/kg. In series [2], this compound displayed an LD50 of 2600 mg/kg. Moreover, the ED30 in series [3] was 160 mg/kg. For the same compound, the minimal effective concentration in the series with platelets was determined as 10 µg/mL.
